Target: 5'-methylthioadenosine/S-adenosylhomocysteine nucleosidase (Escherichia coli O157:H7, UniProt P0AF14)
Experiment: Inhibition of Escherichia coli MTAN

Chain of 5'-methylthioadenosine/S-adenosylhomocysteine nucleosidase (P0AF14 whole entry): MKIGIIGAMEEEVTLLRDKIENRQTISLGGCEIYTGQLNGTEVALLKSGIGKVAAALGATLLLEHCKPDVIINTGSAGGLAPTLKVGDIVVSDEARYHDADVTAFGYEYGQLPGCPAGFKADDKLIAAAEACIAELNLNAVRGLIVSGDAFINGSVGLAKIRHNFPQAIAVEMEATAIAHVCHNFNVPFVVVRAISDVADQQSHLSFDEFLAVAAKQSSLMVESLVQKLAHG

## Nc1ncnc2c([C@@H]3N[C@H](CSCCC(N)C(=O)O)[C@@H](O)[C@H]3O)c[nH]c12 (stereo partly specified)
  Ki: 1.7 nM
